Data from US9868736B2, “Deubiquitinase inhibitors and methods for use of the same” (THE REGENTS OF THE UNIVERSITY OF MICHIGAN, priority 2013, dated 2018).
“Also recorded” adds a separate entry of the source. Where two headings read alike, the source gives them in different places.

Assays:
[1] = system: p53, pStat3, pERK, NOXA, PARP, Bid; experiment: signalling and apoptosis markers in A375 cells; assay type: cell-based
Excerpt: (§1) Similar results were obtained in A375R Usp5 KD cells treated with a MEK inhibitor.

Usp9x = Usp9x (Homo sapiens, UniProt Q93008); experiment: DUB activity (HA-Ub vinyl-sulfone labelling) in lysates of treated intact cells; assay type: cell-based; set-up: endogenous in cells; host or cells: Z138 lymphoma, MM1.S/MM1.ST myeloma, primary PCL cells, A375 and vemurafenib-resistant A375 melanoma; settings: for inhibition at 5 µM: MM1.ST or PCL cells
Protocol: In brief, control and treated cells were lysed by sonication in DUB assay buffer [50 mM Tris-HCl (pH 7.5), 5 mM MgCl2, 250 mM sucrose, 1 mM PMSF, 1× Roche proteinase inhibitory cocktail] and 20 μg of protein from the supernatant fraction (after a 14,000×g spin) were incubated with 200 nM HA-Ub vinyl-sulfone (Boston Biochem) in a final volume of 20 μl. After 90 min at 37° C., reactions were stopped with the addition of 5×-sample buffer. DUB activity was detected by SDS-PAGE resolution of the protein followed by nitrocellulose membrane transfer and immunoblotting with anti-HA.
The time required for G9-mediated Usp9x inhibition in intact multiple myeloma (MM1.S) cells and primary tumor cells from a patient with plasma cell leukemia (PCL) was investigated. MM1.ST (FIG. 1, left) or PCL (FIG. 1, right) cells were treated with 5 μM of compound for the time indicated before Usp9x activity was assessed as described above.

[2] = system: murine norovirus, Tulane virus, Listeria monocytogenes, Toxoplasma gondii, Norwalk virus; experiment: inhibition of category A and B pathogens
[3] = system: vemurafenib sensitive and resistant A375 melanoma cells; experiment: in vitro anti-tumor efficacy in A375 melanoma cells; assay type: cell-based; settings: Homo sapiens, A-375
Excerpt: as §1

Usp5 = biological target: T1, Usp5 (Homo sapiens, UniProt P45974); experiment: DUB activity (HA-Ub labelling) in treated cells; assay type: cell-based
T1 construct: endogenous in cells; host or cells: A375 and A375R melanoma cells (also SK-Mel28)
T1 sequence (P45974 1-858): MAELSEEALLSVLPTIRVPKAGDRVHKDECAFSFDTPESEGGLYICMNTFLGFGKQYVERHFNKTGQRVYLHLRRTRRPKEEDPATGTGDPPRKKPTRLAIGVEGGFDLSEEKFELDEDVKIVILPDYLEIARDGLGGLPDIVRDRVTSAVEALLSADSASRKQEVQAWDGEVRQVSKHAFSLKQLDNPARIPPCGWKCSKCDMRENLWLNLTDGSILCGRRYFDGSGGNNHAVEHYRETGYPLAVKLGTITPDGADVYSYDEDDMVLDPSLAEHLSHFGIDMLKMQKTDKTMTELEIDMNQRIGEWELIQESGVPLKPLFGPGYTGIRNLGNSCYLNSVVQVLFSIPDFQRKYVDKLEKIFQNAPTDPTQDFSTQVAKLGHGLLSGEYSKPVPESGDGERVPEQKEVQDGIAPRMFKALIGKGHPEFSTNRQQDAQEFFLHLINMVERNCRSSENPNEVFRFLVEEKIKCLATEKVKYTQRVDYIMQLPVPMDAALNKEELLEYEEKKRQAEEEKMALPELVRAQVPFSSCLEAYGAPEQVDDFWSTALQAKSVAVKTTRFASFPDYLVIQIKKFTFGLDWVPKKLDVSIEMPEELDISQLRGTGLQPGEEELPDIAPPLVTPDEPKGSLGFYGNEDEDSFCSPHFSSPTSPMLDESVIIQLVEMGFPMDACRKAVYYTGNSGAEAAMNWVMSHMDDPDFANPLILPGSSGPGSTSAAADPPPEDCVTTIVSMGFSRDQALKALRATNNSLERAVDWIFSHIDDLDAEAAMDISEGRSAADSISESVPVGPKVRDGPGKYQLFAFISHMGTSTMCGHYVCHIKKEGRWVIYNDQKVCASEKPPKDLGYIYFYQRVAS
Protocol: DUB activity was assessed by HA blotting and confirmed by monitoring a DUBs mobility shift due to its covalent modification with HA-Ub. DUB inhibition was detected in vemurafenib-responsive (SK-Mel28 and A375) cells and we noted a consistent change in a DUB (100 kDa) identified as Usp5 by LC/MS/MS of the excised protein band (data not shown) and direct immunoblotting. […] DUB activity was also compared in control and BRAF knockdown (KD) cells. BRAF shRNA reduced pERK levels and Usp5 activity.
as §1

[4] = vemurafenib sensitive and resistant A375 cells
[5] = myeloma (MM1.S) cells, various concentrations, FIG. 10

Usp9x, sequence (Q93008 whole entry): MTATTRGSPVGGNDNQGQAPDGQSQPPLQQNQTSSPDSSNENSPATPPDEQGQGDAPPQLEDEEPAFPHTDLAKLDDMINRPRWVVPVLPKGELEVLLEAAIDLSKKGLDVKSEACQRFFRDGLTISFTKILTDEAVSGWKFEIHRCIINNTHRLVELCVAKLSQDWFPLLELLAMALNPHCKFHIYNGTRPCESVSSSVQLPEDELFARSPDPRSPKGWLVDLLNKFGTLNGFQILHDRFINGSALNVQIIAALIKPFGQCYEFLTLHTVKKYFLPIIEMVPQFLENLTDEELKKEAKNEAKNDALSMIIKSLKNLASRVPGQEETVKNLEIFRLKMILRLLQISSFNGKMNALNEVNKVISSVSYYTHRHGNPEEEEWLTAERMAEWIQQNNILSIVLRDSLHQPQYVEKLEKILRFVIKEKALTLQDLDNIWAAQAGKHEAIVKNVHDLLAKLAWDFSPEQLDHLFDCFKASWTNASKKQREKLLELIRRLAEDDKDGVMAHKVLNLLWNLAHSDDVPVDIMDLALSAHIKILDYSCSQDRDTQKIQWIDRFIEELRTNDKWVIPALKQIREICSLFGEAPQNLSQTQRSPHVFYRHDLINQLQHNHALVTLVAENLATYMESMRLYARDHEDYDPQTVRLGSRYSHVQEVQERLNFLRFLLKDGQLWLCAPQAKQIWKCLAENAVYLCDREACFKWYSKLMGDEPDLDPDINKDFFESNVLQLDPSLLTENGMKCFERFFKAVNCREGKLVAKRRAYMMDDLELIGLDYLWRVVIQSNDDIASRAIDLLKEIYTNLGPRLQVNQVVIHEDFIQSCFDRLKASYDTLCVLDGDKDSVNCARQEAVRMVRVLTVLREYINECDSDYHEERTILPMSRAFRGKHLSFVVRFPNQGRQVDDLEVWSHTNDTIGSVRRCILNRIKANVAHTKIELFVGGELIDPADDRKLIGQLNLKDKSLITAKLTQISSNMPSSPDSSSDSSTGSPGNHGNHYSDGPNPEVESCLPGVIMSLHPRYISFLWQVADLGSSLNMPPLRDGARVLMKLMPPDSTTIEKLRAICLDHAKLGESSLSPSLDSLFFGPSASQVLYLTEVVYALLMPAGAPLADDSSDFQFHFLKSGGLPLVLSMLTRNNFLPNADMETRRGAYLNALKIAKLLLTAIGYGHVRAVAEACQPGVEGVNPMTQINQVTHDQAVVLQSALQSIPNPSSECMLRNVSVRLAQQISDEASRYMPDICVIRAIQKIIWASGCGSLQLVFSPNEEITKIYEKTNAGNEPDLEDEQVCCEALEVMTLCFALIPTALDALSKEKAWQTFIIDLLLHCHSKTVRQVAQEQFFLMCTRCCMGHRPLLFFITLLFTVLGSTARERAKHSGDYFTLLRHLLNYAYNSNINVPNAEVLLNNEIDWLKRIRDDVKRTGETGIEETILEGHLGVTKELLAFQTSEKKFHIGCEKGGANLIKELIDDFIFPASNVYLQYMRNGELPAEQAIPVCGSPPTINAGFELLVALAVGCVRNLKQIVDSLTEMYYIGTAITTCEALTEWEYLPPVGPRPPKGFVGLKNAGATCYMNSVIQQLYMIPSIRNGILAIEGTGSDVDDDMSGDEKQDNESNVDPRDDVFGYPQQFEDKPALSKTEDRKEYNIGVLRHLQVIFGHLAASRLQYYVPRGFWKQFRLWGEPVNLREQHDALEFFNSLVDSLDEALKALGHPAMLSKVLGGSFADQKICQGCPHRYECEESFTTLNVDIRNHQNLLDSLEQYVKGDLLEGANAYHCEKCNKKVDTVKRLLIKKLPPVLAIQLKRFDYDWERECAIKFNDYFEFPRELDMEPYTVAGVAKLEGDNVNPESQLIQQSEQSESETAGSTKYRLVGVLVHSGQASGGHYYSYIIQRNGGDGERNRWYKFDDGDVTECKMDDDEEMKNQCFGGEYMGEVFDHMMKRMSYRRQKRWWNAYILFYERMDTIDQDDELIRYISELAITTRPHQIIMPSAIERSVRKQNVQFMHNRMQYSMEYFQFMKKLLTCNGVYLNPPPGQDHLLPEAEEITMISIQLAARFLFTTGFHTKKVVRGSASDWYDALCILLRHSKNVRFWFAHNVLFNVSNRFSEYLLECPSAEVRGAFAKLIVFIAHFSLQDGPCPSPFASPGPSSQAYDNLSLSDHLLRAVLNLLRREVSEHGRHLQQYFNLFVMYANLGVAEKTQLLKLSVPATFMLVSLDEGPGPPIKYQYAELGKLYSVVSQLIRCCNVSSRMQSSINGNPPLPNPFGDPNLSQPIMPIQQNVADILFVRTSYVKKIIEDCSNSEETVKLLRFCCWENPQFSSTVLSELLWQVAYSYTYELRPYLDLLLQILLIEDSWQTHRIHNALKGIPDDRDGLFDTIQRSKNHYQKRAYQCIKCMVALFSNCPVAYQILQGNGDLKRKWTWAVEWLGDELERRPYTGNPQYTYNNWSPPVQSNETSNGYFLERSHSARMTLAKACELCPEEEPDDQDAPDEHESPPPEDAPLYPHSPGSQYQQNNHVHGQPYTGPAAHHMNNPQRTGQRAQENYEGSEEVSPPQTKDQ

CCCC(NC(=O)/C(C#N)=C/c1nc(Cl)ccc1Cl)c1ccc(OCCN2CCOCC2)cc1 (stereo not shown) [Compound G9, (E)-2-Cyano-3-(3,6-dichloropyridin-2-yl)-N-(1-(4-(2-morpholinoethoxy)phenyl)butyl)acrylamide]
pERK, pStat3 and NOXA levels ([1]; A375R cells): reduced pERK, pStat3 and elevated NOXA levels
PARP and Bid cleavage ([1]; A375R cells, combined with vemurafenib or 5FU): induced PARP and Bid cleavage
p53 levels [1, 4]: increased p53 levels
pStat3 inhibitory activity [1, 4]: retained pStat3 inhibitory activity
Usp9x activity (Usp9x; A375 melanoma cells and vemurafenib-resistant A375 variant): inhibition of Usp9x activity in either cell type; also recorded: reduced Usp5 (and Usp9x) activity in both cell types
inhibition at 5 µM (Usp9x; 5 minutes, read-out: Usp9x activity inhibition): > 80%
inhibition at 5 µM (Usp9x; 60 minute, read-out: Usp9x inhibition): 100%
Usp9x activity in intact cells (Usp9x; Z138 lymphoma cells, 1.25, 2.5 and 5 μM, 4 hours): able to inhibit Usp9x activity in intact cells
Usp9x inhibition (Usp9x; [5]): inhibits Usp9x and Usp5
inhibition of category A and B pathogens and related family members [2]: potent inhibitor
IC50 [3]: 1 µM
Usp5 inhibition (Usp5; [5]): inhibits Usp9x and Usp5
Usp5 activity (Usp5; [4]): reduced Usp5 (and Usp9x) activity in both cell types
